We go through one molecule from patent US20140066385A1, “METHOD FOR TREATING CANCER BY COMBINED USE OF DRUGS” (Astellas Pharma Inc., priority 2011, published 2014).

This test relates to Human lung cancer-derived Calu 6 (HTB-56). In words: Example 1: anti-tumor effect of FK330 alone or combined with chemotherapeutic agents in Calu-6 tumor-bearing nude mice. Type of test: in vivo. From the text:
A free-form dihydrate of FK330 was used. Hereinafter, the amount of FK330 administered is expressed in weight of the dihydrate. A docetaxel hydrate injectable preparation (Taxotere (trademark), for intravenous infusion) was purchased from Sanofi-Aventis SA, and was used as docetaxel. A paclitaxel injectable preparation (paclitaxel injection liquid “Sawai”) was purchased from Sawai Pharmaceutical Co., Ltd., and was used as paclitaxel. Irinotecan hydrochloride (Topotesin (trade name) injection) was purchased from Daiichi Sankyo Co., Ltd., and was used as irinotecan. Gemcitabine hydrochloride for injection (Gemzar (trade name) injection) was purchased from Eli Lilly Japan K.K., and was used as gemcitabine. Doxorubicin hydrochloride for injection (Adriacin (trade name) Injection 10) was purchased from Kyowa Hakko Kogyo Co., Ltd., and was used as doxorubicin. A carboplatin injection liquid (Paraplatin (trade name) injection liquid) was purchased from Bristol Myers Squibb Co., and was used as carboplatin.
FK330 was suspended (20 mg/mL) in a 0.5% aqueous methyl cellulose solution (0.5% MC). Docetaxel was prepared in the attached dissolution liquid at 4 mg/mL, and was diluted with physiological saline (Otsuka Pharmaceutical Group) to 1 mg/mL. Paclitaxel, irinotecan, gemcitabine, doxorubicin, and carboplatin were prepared with physiological saline for injection at the time of use at concentrations of 1 mg/mL, 3 mg/mL, 16 mg/mL, 1 mg/mL, and 6 mg/mL, respectively.
Human lung cancer-derived Calu 6 (HTB-56) was obtained from American Type Culture Collection (VA, USA). The cells were cultured under the conditions of 37° C. and 5% CO2 by using RPMI1640 medium containing 10% heat-inactivated fetal bovine serum (FBS). The cells were harvested with trypsin and were suspended in PBS at 6×10^7 cells/mL, and the suspension was mixed with an equal amount of Matrigel (trade name) Basement Membrane Matrix (manufactured by Becton Dickinson Co., Bedford, Mass., USA).
Five-week old male nude mice (CAnN Cg-Foxn1nu/CrlCrlj(nu/nu)) were purchased from Charles River Laboratories Japan, Inc. (Japan, Kanagawa). The animals were raised under specific pathogen-free (SPF) conditions throughout the test period by feeding standard feedstuff and drinking water. The cultured cells were subcutaneously inoculated into the dorsal region of the nude mice at a concentration of 3×10^6 cells/0.1 mL/mouse. Nude mice which had the tumor volumes (major axis×[minor axis]^2×0.52) ranging from 111.9 mm^3 to 369.3 mm^3 were assigned by using SAS to minimize the fluctuation in tumor volume between the groups and within the group.
The first day of administration was designated as Day 1, and observation was made until Day 29. The respective groups (n=5 or 6) were treated as follows. FK330 was orally gavaged (5 mL/kg) twice a day at an interval of 6 to 8 hours, and each of the chemotherapeutic agents was administered by intravenous bolus injection (10 mL/kg) through the tail vein.
FK330 single administration group: 100 mg/kg of FK330 was administered twice a day (bid) (200 mg/kg/day, administered every day from the initiation of experiment to the completion)
Docetaxel single administration group: Docetaxel 10 mg/kg/day (Day 1, 5 and 9)
Paclitaxel single administration group: Paclitaxel 10 mg/kg/day (Day 1 through 7)
Irinotecan single administration group: lrinotecan 30 mg/kg/day (Day 1 through 7)
Gemcitabine single administration group: Gemcitabine 160 mg/kg/day (Day 1, 4 and 7)
Doxorubicin single administration group: Doxorubicin 10 mg/kg/day (Day 1 and 8)
Carboplatin single administration group: Carboplatin 60 mg/kg/day (Day 1 and 2)
FK330 100 mg/kg bid+Docetaxel 10 mg/kg/day (Day 1, 5 and 9), n=6
FK330 100 mg/kg bid+Paclitaxel 10 mg/kg/day (Day 1 through 7), n=6
FK330 100 mg/kg bid+Irinotecan 30 mg/kg/day (Day 1 through 7), n=6
FK330 100 mg/kg bid+Gemcitabine 160 mg/kg/day (Day 1, 4 and 7), n=6
FK330 100 mg/kg bid+Doxorubicin 10 mg/kg/day (Day 1 and 8), n=6 […]

SMILES strings stand for the structures.

Regarding `O=C(/C=C/c1ccc(Cl)cc1)N[C@@H](Cc1ccccn1)C(=O)NCC(=O)N1CCC(Oc2cc(C(F)(F)F)ncn2)CC1` [FK330, N^2-[(2E)-3-(4-chlorophenyl)-2-propenoyl]-N-[2-oxo-2-(4-{[6-(trifluoromethyl)pyrimidin-4-yl]oxy}piperidin-1-yl)ethyl]-3-pyridin-2-yl-L-alaninamide], where the note is “Day 29, FK330 100 mg/kg bid p.o. + docetaxel 10 mg/kg/day i.v. (Day 1, 5 and 9), significant”, the “tumor volume reduction ratio compared with docetaxel-only group” value came out at 63.5%. Also, under “Day 29, FK330 100 mg/kg bid p.o. + doxorubicin 10 mg/kg/day i.v. (Day 1 and 8), not significant”, the “tumor volume reduction ratio compared with doxorubicin-only group” value came to 33.5%. Further, the “tumor volume reduction ratio compared with irinotecan-only group” value (Day 29, FK330 100 mg/kg bid p.o. + irinotecan 30 mg/kg/day i.v. (Day 1 through 7), not significant) turned out to be 30.8%. Also, the “tumor volume reduction ratio compared with paclitaxel-only group” value (Day 29, FK330 100 mg/kg bid p.o. + paclitaxel 10 mg/kg/day i.v. (Day 1 through 7), significant) was determined as 57.6%. Moreover, under “FK330 100 mg/kg bid p.o. + carboplatin 60 mg/kg/day i.v. (Day 1 and 2)”, the “effect of FK330 on the anti-tumor effect of carboplatin” value is on record as “did not affect”. Under “FK330 100 mg/kg bid p.o. + gemcitabine 160 mg/kg/day i.v. (Day 1, 4 and 7)”, the “effect of FK330 on the anti-tumor effect of gemcitabine” value is listed as “did not affect”. Further, the “anti-tumor effect when FK330 was used alone” value (FK330 100 mg/kg bid p.o. alone, every day, observation until Day 29) was “not recognized”.
